In ChEMBL document CHEMBL4507273 (2021):

Tests used:
[1] = target: Ankyrin repeat and protein kinase domain-containing protein 1 (Homo sapiens) (UniProt Q8NFD2); conditions: Compound concentration 1000.0 nM
[2] = target: Mitogen-activated protein kinase kinase kinase 6 (Homo sapiens) (UniProt O95382); conditions: Compound concentration 1000.0 nM
[3] = target: Tyrosine-protein kinase Blk (Homo sapiens) (UniProt P51451); conditions: Compound concentration 1000.0 nM
[4] = target: Calcium/calmodulin-dependent protein kinase type II subunit alpha (Homo sapiens) (UniProt Q9UQM7); conditions: Compound concentration 1000.0 nM
Chain of Calcium/calmodulin-dependent protein kinase type II subunit alpha (Homo sapiens) (Q9UQM7 whole entry): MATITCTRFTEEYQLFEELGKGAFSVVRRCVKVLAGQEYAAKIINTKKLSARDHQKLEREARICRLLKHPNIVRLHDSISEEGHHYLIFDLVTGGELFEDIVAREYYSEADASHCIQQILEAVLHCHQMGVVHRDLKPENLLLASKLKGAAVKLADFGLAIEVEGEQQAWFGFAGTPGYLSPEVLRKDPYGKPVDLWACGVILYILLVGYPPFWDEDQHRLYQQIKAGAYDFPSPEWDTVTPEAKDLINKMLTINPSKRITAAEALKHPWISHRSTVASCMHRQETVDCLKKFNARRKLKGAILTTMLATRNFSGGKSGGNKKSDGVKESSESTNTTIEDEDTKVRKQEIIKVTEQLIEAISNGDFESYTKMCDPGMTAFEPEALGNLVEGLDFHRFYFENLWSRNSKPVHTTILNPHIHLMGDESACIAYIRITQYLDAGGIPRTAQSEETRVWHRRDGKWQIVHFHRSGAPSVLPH

[5] = target: Calcium/calmodulin-dependent protein kinase type IV (Homo sapiens) (UniProt Q16566); conditions: Compound concentration 1000.0 nM
Chain of Calcium/calmodulin-dependent protein kinase type IV (Homo sapiens) (Q16566 whole entry): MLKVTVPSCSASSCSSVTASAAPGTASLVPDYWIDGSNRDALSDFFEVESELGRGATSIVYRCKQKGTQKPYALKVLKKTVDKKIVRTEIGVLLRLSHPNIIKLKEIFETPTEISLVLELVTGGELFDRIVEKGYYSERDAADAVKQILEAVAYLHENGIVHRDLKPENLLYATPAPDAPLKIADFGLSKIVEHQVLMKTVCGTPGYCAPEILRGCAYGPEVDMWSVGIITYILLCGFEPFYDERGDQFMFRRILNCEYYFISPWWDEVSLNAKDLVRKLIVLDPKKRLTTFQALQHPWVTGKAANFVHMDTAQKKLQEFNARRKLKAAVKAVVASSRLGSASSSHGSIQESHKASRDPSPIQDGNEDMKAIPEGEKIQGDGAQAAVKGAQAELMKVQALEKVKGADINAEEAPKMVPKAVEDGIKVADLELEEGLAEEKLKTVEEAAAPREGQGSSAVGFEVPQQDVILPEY

[6] = target: Calcium/calmodulin-dependent protein kinase kinase 2 (Homo sapiens) (UniProt Q96RR4); conditions: Compound concentration 1000.0 nM
[7] = target: Cyclin-dependent kinase 11B (Homo sapiens) (UniProt P21127); conditions: Compound concentration 1000.0 nM
[8] = target: Cyclin-dependent kinase 9 (Homo sapiens) (UniProt P50750); conditions: Compound concentration 1000.0 nM
[9] = target: Cyclin-dependent kinase-like 3 (Homo sapiens) (UniProt Q8IVW4); conditions: Compound concentration 1000.0 nM
Chain of Cyclin-dependent kinase-like 3 (Homo sapiens) (Q8IVW4 whole entry, looked up): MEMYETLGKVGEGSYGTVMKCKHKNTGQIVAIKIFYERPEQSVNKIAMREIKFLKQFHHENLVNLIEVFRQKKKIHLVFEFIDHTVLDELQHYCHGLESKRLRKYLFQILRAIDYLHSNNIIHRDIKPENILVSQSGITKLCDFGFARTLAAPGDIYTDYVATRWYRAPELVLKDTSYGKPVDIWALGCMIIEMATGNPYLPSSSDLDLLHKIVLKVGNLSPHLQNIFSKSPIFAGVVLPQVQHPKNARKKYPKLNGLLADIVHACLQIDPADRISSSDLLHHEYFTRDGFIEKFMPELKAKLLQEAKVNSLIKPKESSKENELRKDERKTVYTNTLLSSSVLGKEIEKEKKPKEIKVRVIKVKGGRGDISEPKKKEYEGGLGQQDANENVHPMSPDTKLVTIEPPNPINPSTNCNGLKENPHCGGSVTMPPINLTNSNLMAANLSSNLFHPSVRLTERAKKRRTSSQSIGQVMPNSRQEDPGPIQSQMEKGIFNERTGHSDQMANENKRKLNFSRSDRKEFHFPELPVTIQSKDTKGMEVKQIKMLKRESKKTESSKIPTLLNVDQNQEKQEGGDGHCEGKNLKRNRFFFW

[10] = target: Serine/threonine-protein kinase Chk1 (Homo sapiens) (UniProt O14757); conditions: Compound concentration 1000.0 nM
[11] = target: Casein kinase I isoform delta (Homo sapiens) (UniProt P48730); conditions: Compound concentration 1000.0 nM
[12] = system: Epidermal growth factor receptor (Homo sapiens), P00533 [UNDEFINED MUTATION]; conditions: Compound concentration 1000.0 nM
[13] = target: Ephrin type-A receptor 6 (Homo sapiens) (UniProt Q9UF33); conditions: Compound concentration 1000.0 nM
[14] = target: Receptor tyrosine-protein kinase erbB-4 (Homo sapiens) (UniProt Q15303); conditions: Compound concentration 1000.0 nM
[15] = target: Fibroblast growth factor receptor 1 (Homo sapiens) (UniProt P11362); conditions: Compound concentration 1000.0 nM
[16] = system: Receptor-type tyrosine-protein kinase FLT3 (Homo sapiens), P36888 [R834Q]; conditions: Compound concentration 1000.0 nM
[17] = target: Vascular endothelial growth factor receptor 3 (Homo sapiens) (UniProt P35916); conditions: Compound concentration 1000.0 nM
[18] = target: Beta-adrenergic receptor kinase 1 (Homo sapiens) (UniProt P25098); conditions: Compound concentration 1000.0 nM
[19] = target: Glycogen synthase kinase-3 beta (Homo sapiens) (UniProt P49841); conditions: Compound concentration 1000.0 nM
[20] = target: Tyrosine-protein kinase ITK/TSK (Homo sapiens) (UniProt Q08881); conditions: Compound concentration 1000.0 nM
[21] = target: Mitogen-activated protein kinase 9 (Homo sapiens) (UniProt P45984); conditions: Compound concentration 1000.0 nM
[22] = system: Mast/stem cell growth factor receptor Kit (Homo sapiens), P10721 [V559D,V654A]; conditions: Compound concentration 1000.0 nM
[23] = target: Leucine-rich repeat serine/threonine-protein kinase 2 (Homo sapiens) (UniProt Q5S007); conditions: Compound concentration 1000.0 nM
[24] = target: Mitogen-activated protein kinase kinase kinase 4 (Homo sapiens) (UniProt Q9Y6R4); conditions: Compound concentration 1000.0 nM
[25] = system: Hepatocyte growth factor receptor (Homo sapiens), P08581 [Y1235D]; conditions: Compound concentration 1000.0 nM
[26] = target: Serine/threonine-protein kinase 38 (Homo sapiens) (UniProt Q15208); conditions: Compound concentration 1000.0 nM
[27] = target: Serine/threonine-protein kinase Nek3 (Homo sapiens) (UniProt P51956); conditions: Compound concentration 1000.0 nM
[28] = target: Serine/threonine-protein kinase Nek6 (Homo sapiens) (UniProt Q9HC98); conditions: Compound concentration 1000.0 nM
Chain of Serine/threonine-protein kinase Nek6 (Homo sapiens) (Q9HC98 whole entry): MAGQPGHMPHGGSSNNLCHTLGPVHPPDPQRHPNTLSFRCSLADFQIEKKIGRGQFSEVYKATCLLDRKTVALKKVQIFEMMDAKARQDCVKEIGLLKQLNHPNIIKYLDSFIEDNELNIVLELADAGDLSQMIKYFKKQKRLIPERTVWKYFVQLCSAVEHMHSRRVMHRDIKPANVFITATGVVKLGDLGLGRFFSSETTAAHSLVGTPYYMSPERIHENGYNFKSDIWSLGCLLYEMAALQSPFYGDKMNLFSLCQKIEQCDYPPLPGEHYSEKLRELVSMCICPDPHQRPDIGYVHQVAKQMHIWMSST

[29] = target: Serine/threonine-protein kinase PAK 6 (Homo sapiens) (UniProt Q9NQU5); conditions: Compound concentration 1000.0 nM
[30] = target: Phosphatidylinositol 4,5-bisphosphate 3-kinase catalytic subunit alpha isoform (Homo sapiens) (UniProt P42336); conditions: Compound concentration 1000.0 nM
[31] = target: Phosphatidylinositol 4-phosphate 5-kinase type-1 alpha (Homo sapiens) (UniProt Q99755); conditions: Compound concentration 1000.0 nM
[32] = target: Serine/threonine-protein kinase PLK3 (Homo sapiens) (UniProt Q9H4B4); conditions: Compound concentration 1000.0 nM
[33] = target: Protein kinase C theta type (Homo sapiens) (UniProt Q04759); conditions: Compound concentration 1000.0 nM
[34] = target: Serine/threonine-protein kinase PRP4 homolog (Homo sapiens) (UniProt Q13523); conditions: Compound concentration 1000.0 nM
[35] = target: Serine/threonine-protein kinase RIO1 (Homo sapiens) (UniProt Q9BRS2); conditions: Compound concentration 1000.0 nM
Chain of Serine/threonine-protein kinase RIO1 (Homo sapiens) (Q9BRS2 whole entry): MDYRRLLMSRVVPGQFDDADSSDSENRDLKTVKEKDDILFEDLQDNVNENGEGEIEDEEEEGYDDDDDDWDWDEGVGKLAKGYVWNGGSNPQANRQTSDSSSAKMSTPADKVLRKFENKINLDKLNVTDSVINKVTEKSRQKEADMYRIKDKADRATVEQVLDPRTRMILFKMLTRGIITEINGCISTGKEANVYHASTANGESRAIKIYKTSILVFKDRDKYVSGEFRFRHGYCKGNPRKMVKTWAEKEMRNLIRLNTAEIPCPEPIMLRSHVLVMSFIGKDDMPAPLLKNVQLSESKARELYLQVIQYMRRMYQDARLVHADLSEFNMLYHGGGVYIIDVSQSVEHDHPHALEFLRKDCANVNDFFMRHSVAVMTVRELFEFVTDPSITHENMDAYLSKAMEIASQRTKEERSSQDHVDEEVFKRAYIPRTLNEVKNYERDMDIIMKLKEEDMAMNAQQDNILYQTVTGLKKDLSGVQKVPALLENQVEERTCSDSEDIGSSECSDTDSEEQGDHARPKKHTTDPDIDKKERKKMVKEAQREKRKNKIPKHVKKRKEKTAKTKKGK

[36] = target: Serine/threonine-protein kinase RIO2 (Homo sapiens) (UniProt Q9BVS4); conditions: Compound concentration 1000.0 nM
[37] = target: Rho-associated protein kinase 1 (Homo sapiens) (UniProt Q13464); conditions: Compound concentration 1000.0 nM
Chain of Rho-associated protein kinase 1 (Homo sapiens) (Q13464 2-1354 limits assumed): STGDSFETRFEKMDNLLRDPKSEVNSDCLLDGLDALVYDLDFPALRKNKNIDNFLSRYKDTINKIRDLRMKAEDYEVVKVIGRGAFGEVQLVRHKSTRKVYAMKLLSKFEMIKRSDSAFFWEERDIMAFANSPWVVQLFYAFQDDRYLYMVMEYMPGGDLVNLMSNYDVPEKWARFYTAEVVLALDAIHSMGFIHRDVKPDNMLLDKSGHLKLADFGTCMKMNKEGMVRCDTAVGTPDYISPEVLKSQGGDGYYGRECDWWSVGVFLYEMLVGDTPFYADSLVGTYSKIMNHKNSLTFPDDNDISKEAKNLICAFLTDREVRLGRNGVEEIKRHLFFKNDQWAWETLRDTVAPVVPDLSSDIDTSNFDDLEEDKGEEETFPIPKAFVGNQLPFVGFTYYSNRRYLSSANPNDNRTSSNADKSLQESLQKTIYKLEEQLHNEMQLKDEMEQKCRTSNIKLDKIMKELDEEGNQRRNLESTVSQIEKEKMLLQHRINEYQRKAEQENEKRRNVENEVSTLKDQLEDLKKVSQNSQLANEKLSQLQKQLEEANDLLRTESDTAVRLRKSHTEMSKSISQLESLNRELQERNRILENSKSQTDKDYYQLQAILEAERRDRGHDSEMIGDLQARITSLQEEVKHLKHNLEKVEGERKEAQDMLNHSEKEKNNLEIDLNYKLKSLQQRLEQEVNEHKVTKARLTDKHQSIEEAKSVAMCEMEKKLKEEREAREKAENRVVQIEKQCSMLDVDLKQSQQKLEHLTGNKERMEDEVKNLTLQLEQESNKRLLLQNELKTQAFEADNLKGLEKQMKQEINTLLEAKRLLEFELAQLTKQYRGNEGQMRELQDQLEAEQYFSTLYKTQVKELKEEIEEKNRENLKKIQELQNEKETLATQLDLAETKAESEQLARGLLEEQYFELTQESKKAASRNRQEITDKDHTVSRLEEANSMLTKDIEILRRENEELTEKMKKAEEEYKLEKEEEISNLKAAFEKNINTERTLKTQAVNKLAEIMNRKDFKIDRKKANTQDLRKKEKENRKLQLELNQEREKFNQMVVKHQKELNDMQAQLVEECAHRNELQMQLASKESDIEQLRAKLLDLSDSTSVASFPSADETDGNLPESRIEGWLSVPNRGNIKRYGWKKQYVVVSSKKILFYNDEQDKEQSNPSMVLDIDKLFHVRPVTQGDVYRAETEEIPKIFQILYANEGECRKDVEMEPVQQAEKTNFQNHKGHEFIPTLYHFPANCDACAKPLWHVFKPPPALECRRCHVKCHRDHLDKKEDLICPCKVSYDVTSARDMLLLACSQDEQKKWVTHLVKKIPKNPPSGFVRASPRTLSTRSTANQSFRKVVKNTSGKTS

[38] = target: SRSF protein kinase 3 (Homo sapiens) (UniProt Q9UPE1); conditions: Compound concentration 1000.0 nM
[39] = target: High affinity nerve growth factor receptor (Homo sapiens) (UniProt P04629); conditions: Compound concentration 1000.0 nM
[40] = target: Tyrosine-protein kinase receptor TYRO3 (Homo sapiens) (UniProt Q06418); conditions: Compound concentration 1000.0 nM
[41] = target: Serine/threonine-protein kinase ULK2 (Homo sapiens) (UniProt Q8IYT8); conditions: Compound concentration 1000.0 nM
[42] = target: Serine/threonine-protein kinase 32A (Homo sapiens) (UniProt Q8WU08); conditions: Compound concentration 1000.0 nM
Chain of Serine/threonine-protein kinase 32A (Homo sapiens) (Q8WU08 whole entry): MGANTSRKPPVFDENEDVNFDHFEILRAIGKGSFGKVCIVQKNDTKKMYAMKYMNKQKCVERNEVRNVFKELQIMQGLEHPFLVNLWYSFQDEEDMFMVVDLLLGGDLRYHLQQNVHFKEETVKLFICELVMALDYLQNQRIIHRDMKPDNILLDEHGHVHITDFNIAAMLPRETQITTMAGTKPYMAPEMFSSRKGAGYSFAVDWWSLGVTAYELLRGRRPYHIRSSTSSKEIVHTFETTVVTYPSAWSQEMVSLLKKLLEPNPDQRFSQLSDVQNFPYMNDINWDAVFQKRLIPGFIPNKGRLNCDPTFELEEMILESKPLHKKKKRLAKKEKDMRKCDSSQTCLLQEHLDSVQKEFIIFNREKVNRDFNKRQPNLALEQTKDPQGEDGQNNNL

[43] = target: Serine/threonine-protein kinase 25 (Homo sapiens) (UniProt O00506); conditions: Compound concentration 1000.0 nM
[44] = target: Mitogen-activated protein kinase kinase kinase 19 (Homo sapiens) (UniProt Q56UN5); conditions: Compound concentration 1000.0 nM
[45] = target: 5-hydroxytryptamine receptor 7 (Homo sapiens, UniProt P34969); conditions: Compound concentration 10.0 uM

Chain of Ankyrin repeat and protein kinase domain-containing protein 1 (Homo sapiens) (Q8NFD2 whole entry, the tested form may be a part): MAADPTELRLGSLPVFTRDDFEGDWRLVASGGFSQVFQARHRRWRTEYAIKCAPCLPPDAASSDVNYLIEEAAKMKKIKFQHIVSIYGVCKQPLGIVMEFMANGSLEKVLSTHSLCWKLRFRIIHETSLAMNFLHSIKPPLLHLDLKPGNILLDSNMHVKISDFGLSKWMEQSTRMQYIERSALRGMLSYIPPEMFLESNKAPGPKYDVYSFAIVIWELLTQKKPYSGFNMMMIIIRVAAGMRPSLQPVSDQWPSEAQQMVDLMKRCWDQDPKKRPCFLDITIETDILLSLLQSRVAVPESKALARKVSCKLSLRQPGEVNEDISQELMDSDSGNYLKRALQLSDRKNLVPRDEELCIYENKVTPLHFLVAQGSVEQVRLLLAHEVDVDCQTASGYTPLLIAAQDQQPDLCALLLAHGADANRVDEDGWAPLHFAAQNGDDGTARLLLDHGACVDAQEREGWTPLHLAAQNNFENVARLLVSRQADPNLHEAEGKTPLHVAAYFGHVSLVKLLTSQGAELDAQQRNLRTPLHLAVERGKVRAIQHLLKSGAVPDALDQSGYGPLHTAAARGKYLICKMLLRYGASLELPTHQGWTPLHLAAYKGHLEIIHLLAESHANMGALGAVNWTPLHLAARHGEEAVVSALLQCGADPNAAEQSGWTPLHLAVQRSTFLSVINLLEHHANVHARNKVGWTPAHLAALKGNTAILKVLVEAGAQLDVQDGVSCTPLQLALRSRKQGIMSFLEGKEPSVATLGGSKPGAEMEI

## CNCc1ccccc1-c1csc([C@@H](C)Nc2nc(C)nc3cc(OC)c(OC)cc23)c1 [BAY-293]
[1]
  residual activity: 76%
[2]
  residual activity: 99%
[3]
  residual activity: 91%
[4]
  residual activity: 99%
[5]
  residual activity: 88%
[6]
  residual activity: 100%
[7]
  residual activity: 100%
[8]
  residual activity: 100%
[9]
  residual activity: 99%
[10]
  residual activity: 92%
[11]
  residual activity: 82%
[12]
  residual activity: 61%
[13]
  residual activity: 96%
[14]
  residual activity: 97%
[15]
  residual activity: 100%
[16]
  residual activity: 79%
[17]
  residual activity: 83%
[18]
  residual activity: 86%
[19]
  residual activity: 90%
[20]
  residual activity: 100%
[21]
  residual activity: 71%
[22]
  residual activity: 89%
[23]
  residual activity: 100%
[24]
  residual activity: 73%
[25]
  residual activity: 100%
[26]
  residual activity: 60%
[27]
  residual activity: 100%
[28]
  residual activity: 96%
[29]
  residual activity: 100%
[30]
  residual activity: 69%
[31]
  residual activity: 75%
[32]
  residual activity: 91%
[33]
  residual activity: 100%
[34]
  residual activity: 96%
[35]
  residual activity: 100%
[36]
  residual activity: 100%
[37]
  residual activity: 91%
[38]
  residual activity: 84%
[39]
  residual activity: 87%
[40]
  residual activity: 89%
[41]
  residual activity: 100%
[42]
  residual activity: 76%
[43]
  residual activity: 89%
[44]
  residual activity: 71%
[45]
  inhibition: 76.2%

## CNCc1ccccc1-c1csc([C@H](C)Nc2nc(C)nc3cc(OC)c(OC)cc23)c1 [BAY-294]
[1]
  residual activity: 90%
[2]
  residual activity: 100%
[3]
  residual activity: 94%
[4]
  residual activity: 100%
[5]
  residual activity: 99%
[6]
  residual activity: 82%
[7]
  residual activity: 100%
[8]
  residual activity: 100%
[9]
  residual activity: 97%
[10]
  residual activity: 100%
[11]
  residual activity: 95%
[12]
  residual activity: 100%
[13]
  residual activity: 100%
[14]
  residual activity: 100%
[15]
  residual activity: 100%
[16]
  residual activity: 82%
[17]
  residual activity: 100%
[18]
  residual activity: 100%
[19]
  residual activity: 100%
[20]
  residual activity: 100%
[21]
  residual activity: 71%
[22]
  residual activity: 100%
[23]
  residual activity: 100%
[24]
  residual activity: 100%
[25]
  residual activity: 98%
[26]
  residual activity: 87%
[27]
  residual activity: 87%
[28]
  residual activity: 100%
[29]
  residual activity: 100%
[30]
  residual activity: 71%
[31]
  residual activity: 92%
[32]
  residual activity: 87%
[33]
  residual activity: 100%
[34]
  residual activity: 100%
[35]
  residual activity: 96%
[36]
  residual activity: 100%
[37]
  residual activity: 93%
[38]
  residual activity: 89%
[39]
  residual activity: 87%
[40]
  residual activity: 100%
[41]
  residual activity: 100%
[42]
  residual activity: 91%
[43]
  residual activity: 100%
[44]
  residual activity: 78%
[45]
  inhibition: 70.7%
